For one assay, the system named is parental HEK293 cells. The assay can be described thus: Membrane potential dye fluorescence assay in parental (non-transfected) HEK293 cells. In kind it is cell-based, human. To be noted: cells not expressing TRPA1.
Assay [1] concerns the target T1, hTRPA1 (Homo sapiens, UniProt O75762).
T1 construct: The full length hTRPA1 was amplified by PCR with Kpn1 and Xho1 restriction enzyme sites; expressed in transfected cells; also transient transfection
The experiment in a line: Membrane potential dye fluorescence assay (FLIPR/FLEXstation), activation of hTRPA1 in transfected HEK293 cells. In kind it is cell-based. The following applies: for TRPA1 activation / agonist activity (in words): hTRPA1 HEK293 cells, increase in fluorescence of membrane potential dye. The procedure:
Once expression of TRPA1 was confirmed, 100 μl of the Blue or Red FMP dye (Molecular Devices) was added to each well of plates seeded with the transiently transfected cells. The plate was then incubated in a 37° C./5% CO2 incubator for 1 hour. The plate was read in a FLEXStation microplate reader (Molecular Devices) with an excitation of 530 nm and an emission of 565 nm. The fluorescence was monitored for 3 minutes upon exposure of the cells to a TRPA1 activating agent (e.g., cinnamaldehyde).
(§1) Samples in a 384-well plate were evaluated in a 5 minute assay on the FLIPR-Tetra™ (Molecular Devices). The assay was performed on a FLIPR™ using the excitation 510-545 nm and emission 565-625 nm filter sets. TRPA1-Transfected HEK cells, 15,000/well, were seeded overnight on poly-D-lysine coated 384 well plates in 20 μl media. Membrane Potential Assay Dye Red (Molecular Devices), 20 μl/well, was added and the plates incubated for 1 hour in a 37° C. and 5% CO2 incubator. The plates were then removed from the incubator and equilibrated to room temperature for 15 minutes before reading on the FLIPR®. The plates were read on the FLIPR® for a total of 3 minutes. Baseline fluorescence was obtained on the FLIPR® for 10 seconds followed by addition (typically 10 μl) of each agonist by the FLIPR® and read for an additional 2 minutes and 50 seconds.

The target in assay [2] is T1, hTRPA1. The assay can be described thus: Modulation of agonist-activated TRPA1 in HEK293 cells expressing hTRPA1 (membrane potential dye). In kind it is cell-based. To be noted: for inhibition of thymol activated TRPA1 (in words): HEK293 cells. The procedure: as §1
Appropriate control experiments are performed and can easily be determined by the skilled artisan.
HEK293 cells and CHO cells expressing TRPA1 were subjected to the assay described in Example 2.

Entries after “also recorded” stand apart in the source; their conditions may differ.

T1 sequence (O75762 whole entry): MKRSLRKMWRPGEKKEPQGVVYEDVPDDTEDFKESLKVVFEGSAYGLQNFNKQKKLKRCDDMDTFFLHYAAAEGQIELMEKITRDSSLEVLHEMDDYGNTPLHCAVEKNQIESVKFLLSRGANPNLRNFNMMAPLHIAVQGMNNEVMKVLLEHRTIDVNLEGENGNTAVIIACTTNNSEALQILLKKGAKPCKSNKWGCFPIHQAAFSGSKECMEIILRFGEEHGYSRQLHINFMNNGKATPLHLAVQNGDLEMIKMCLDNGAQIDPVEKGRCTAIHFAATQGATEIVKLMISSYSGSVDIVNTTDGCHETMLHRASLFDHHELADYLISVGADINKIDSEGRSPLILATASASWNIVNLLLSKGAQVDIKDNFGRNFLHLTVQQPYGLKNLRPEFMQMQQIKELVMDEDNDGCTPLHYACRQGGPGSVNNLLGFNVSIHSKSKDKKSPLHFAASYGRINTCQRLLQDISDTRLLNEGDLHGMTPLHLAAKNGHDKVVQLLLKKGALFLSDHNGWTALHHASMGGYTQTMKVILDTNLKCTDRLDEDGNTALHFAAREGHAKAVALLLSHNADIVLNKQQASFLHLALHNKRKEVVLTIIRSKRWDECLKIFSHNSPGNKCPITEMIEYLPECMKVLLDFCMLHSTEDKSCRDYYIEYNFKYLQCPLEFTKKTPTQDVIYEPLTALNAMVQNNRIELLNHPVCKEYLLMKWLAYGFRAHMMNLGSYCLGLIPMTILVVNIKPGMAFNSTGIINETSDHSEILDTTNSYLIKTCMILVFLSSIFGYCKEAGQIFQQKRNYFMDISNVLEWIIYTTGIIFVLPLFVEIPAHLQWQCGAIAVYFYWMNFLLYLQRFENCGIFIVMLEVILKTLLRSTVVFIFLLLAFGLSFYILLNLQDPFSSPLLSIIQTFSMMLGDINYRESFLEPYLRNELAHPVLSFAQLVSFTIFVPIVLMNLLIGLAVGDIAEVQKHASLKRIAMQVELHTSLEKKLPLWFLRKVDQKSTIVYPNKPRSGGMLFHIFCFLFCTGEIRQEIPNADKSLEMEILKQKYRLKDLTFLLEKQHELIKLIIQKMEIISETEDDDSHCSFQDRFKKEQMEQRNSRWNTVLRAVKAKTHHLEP

For `Cc1ccc(O)cc1C` [3,4-dimethylphenol], the “response of parental HEK293 cells (in words)” value in the assay with parental HEK293 cells is recorded as “no response”.

As to `CC1(C)[C@@H]2C[C@H]1[C@@](C)(O)[C@@H](O)C2` [Pinanediol], the “TRPA1 activation / agonist activity (in words)” value on hTRPA1 [1] is reported as “Neither isomer (+ shown) had a significant agonist activity until 10 mM”. Further, the “inhibition of thymol activated TRPA1 (in words)” value (“inhibition” for short) on hTRPA1 [2] was “both inhibited TRPA1 activation at 1 mM”.

On to `CC1(C(=O)O)CCC(C(=O)O)C1(C)C` (stereo not shown) [camphoric acid], for which the “TRPA1 activation / agonist activity (in words)” value on hTRPA1 [1] is listed as “are TRPA1 agonists; also recorded: have agonist activity”. In addition, the “inhibition” value on hTRPA1 [2] is listed as “do not act as agonists of thymol activation of TRPA1”.

For orientation: EC50 means the concentration at which the effect is half-maximal. Consider `CC12CCC(C(=O)C1=O)C2(C)C` (stereo not shown) [camphorquinone], for which the EC50 on hTRPA1 [1] (TRPA1 HEK293 cells, FIGS. 8C and 8D, read-out: EC50 of agonist response in TRPA1) is ~300 µM. Besides, on hTRPA1 [1], the “TRPA1 activation / agonist activity (in words)” value is given as “triggers an agonist response; also recorded: are TRPA1 agonists; also recorded: have agonist activity”. The “inhibition” value on hTRPA1 [2] was “do not act as agonists of thymol activation of TRPA1”. The “effect on subsequent thymol and cinnamaldehyde responses (in words)” value on hTRPA1 [2] (TRPA1 transfected HEK293 cells, compound first, then agonist) is “desensitizes thymol and cinnamaldehyde responses”.

Take `CC1(C)C2CCC1(CS(N)(=O)=O)C(=O)C2` (stereo not shown) [camphorsufomamide]: the “TRPA1 activation / agonist activity (in words)” value on hTRPA1 [1] was “have agonist activity”. Further, the “inhibition” value on hTRPA1 [2] is “do not act as agonists of thymol activation of TRPA1”.

For `C=C(C)[C@H]1CC=C(C)CC1` [limonene], the “TRPA1 activation / agonist activity (in words)” value on hTRPA1 [1] is “are TRPA1 agonists; also recorded: have agonist activity”. For the same compound, the “inhibition” value on hTRPA1 [2] is recorded as “do not act as agonists of thymol activation of TRPA1”.

Values taken from patent US7674594B2, “Screening assay for inhibitors of TRPA1 activation by a lower alkyl phenol” (Redpoint Bio Corporation, priority 2006, dated 2010).
